In patent US20120237503A1, “Screening Method and Therapy with Agonists of DDAH I” (UCL BUSINESS PLC, priority 2009, published 2012):
Entries after “also recorded” stand apart in the source; their conditions may differ.

Assays:
[1] = test system: BDL rats; experiment: Direct portal pressure measurement in bile duct ligated (BDL) rats; assay type: in vivo, rat
Source text: (§1) These experiments utilised an established animal model of cirrhosis, the bile duct ligated (BDL) rat. BDL rats may be generated by methods known in the art. For example, male Sprague-Dawley rats (200-250 g) may be used for this procedure. Following anaesthetisation, a mid-line laparotamy may be performed, the bile duct exposed, triply ligated with 4.0 silk suture, and severed between the second and third ligature. The wound is then closed in layers with absorbable suture, and the animal allowed to recover in a quiet room before being returned to the animal storage facility.
Three groups of rats were used in these experiments, BDL rats treated with vehicle, BDL rats treated with the anti-TNF monoclonal antibody infliximab, and sham treated rats.
Four weeks after BDL or sham surgery in Sprague-Dawley rats (n=14), BDL rats were gavaged with 5 mg/kg of the FXR agonist INT-747 (6-ethyl chenodeoxycholic acid, Intercept Pharmaceuticals Inc.) in vehicle (corn oil) for 5 days or with vehicle alone.
(§2) After 5 days of treatment rats underwent direct portal pressure assessment and were then sacrificed, and plasma and liver tissue collected for analysis. eNOS activity was determined radiometrically by the conversion of labelled radioactive arginine to citrulline. Protein expression for eNOS, iNOS, DDAH-1, and DDAH-2 were measured by standard Western Blotting techniques. Liver biopsies were evaluated for histopathology with H+E, Van Giesen and reticulin stains.
This method, termed ‘hydrodynamic gene therapy’, was used to determine the effect of transduction of DDAH-1 in BDL rats on portal pressure.
A plasmid containing human DDAH-1 cDNA was injected via a branch of the jugular vein into BDL or sham rodents produced as above. A control plasmid containing GFP was used as a control for the intervention in BDL animals. The animals underwent direct portal pressure measurement at 48 hours post intervention and plasma and tissue was collected for analysis of liver DDAH-1 mRNA (rtPCR) and protein expression (western blotting), as well as routine histology and biochemistry.

[2] = test system: DDAH-I; experiment: Hepatic DDAH-I protein expression in BDL rats; assay type: in vivo, rat; details: BDL rats + infliximab vs BDL vehicle and sham
Source text: as §1
Extracts containing equal amounts of protein were denatured and separated on 4-12% NuPAGE Bis-Tris Gels and blotted on to PVDF membranes (Invitrogen, UK). […] The bands were visualized using an enhanced ECL detection kit and quantified by densitometry. Loading accuracy was evaluated via membrane rehybridization with antibodies against mouse and rabbit anti-α tubulin (1:1000; upstate and Cell Signaling Technology, respectively).
as §2, with “Liver biopsies were evaluated for histopathology with H+E, Van Giesen and reticulin stains.” left out

[3] = test system: ADMA; experiment: Liver tissue ADMA concentration in BDL rats; assay type: in vivo, rat; details: BDL rats + infliximab vs BDL vehicle
Source text: as §1
ADMA, SDMA and arginine were measured using fragmentation specific stable isotope dilution electrospray tandem mass spectrometry. In brief, samples de-proteinized with deuterated ADMA, SDMA and arginine, were chromatographed (acetonitrile:water, 1:1, with 0.025% formic acid) on a Teicoplanin guard column 10 mm×2.1 mm ID (Chirobiotic T, ASTEC Ltd, Congleton, UK), and analysed using a SCIEX API4000 (Applied Biosystems, Warrington, UK) in positive ion multiple reaction monitoring mode.

[4] = test system: eNOS; experiment: Hepatic eNOS activity (conversion of labelled arginine to 14C-citrulline) in BDL rats; assay type: in vivo, rat; details: BDL rats + infliximab vs BDL vehicle and sham
Procedure: FIG. 1 reports on the 14C-citrulline counts per minute per milligram of protein. This is a measure of eNOS activity. Experiments were carried out in bile-duct ligated (BDL) or sham treated rats. The bile duct ligated rats were treated with either infliximab (BDL+infliximab) or a vehicle (BDL).
as §1, §2

[5] = test system: patients with acute alcoholic hepatitis; details: systemic infliximab in association with prednisolone; cited from earlier work

| Molecule | reduction in portal pressure ([1]; BDL rats, INT-747 5 mg/kg gavage for 5 days, compared to BDL+vehicle, p<0.01) | DDAH-I expression in liver [2] | DDAH-I expression in liver ([2]; listed as Infliximab) | portal pressure ([1]; BDL cirrhotic rats after infliximab, BDL 14±0.7, sham 5.5±0.3 mmHg) | reduction in portal pressure ([1]; BDL rats + infliximab compared with BDL rats (vehicle / iso-volumetric saline)) | reduction in portal pressure ([1]; BDL rats + infliximab compared with BDL rats (vehicle / iso-volumetric saline), listed as Infliximab) | ADMA levels in liver tissue [3] | eNOS activity (14C-citrulline counts per minute per milligram of protein) [4] | severe infections [5] |
| --- | --- | --- | --- | --- | --- | --- | --- | --- | --- |
| CC[C@H]1[C@@H](O)[C@@H]2[C@H](CC[C@]3(C)[C@@H]([C@H](C)CCC(=O)O)CC[C@@H]23)[C@@]2(C)CC[C@@H](O)C[C@@H]12 [INT-747, 6-ethyl chenodeoxycholic acid] | 30% |  |  |  |  |  |  |  |  |
| infliximab: anti-TNF monoclonal antibody infliximab |  | restored towards sham levels; also recorded: significant increase | restored towards sham levels | 9.5±0.6 mmHg | greater than 33% | more than 30% | substantially reduced; also recorded: reduction | restores eNOS activity towards similar levels to those seen in the sham animals; also recorded: Increased | high level of severe infections |
